Measured values from ChEMBL document CHEMBL4507274 (2021).

Columns and labels:
[1] = tested on: Epidermal growth factor receptor (Homo sapiens), P00533 [UNDEFINED MUTATION]; conditions: Compound concentration 100.0 nM
[2] = target: Sodium-dependent noradrenaline transporter (Homo sapiens) (UniProt P23975); conditions: Compound concentration 10.0 uM
[3] = target: Protein kinase C theta type (Homo sapiens) (UniProt Q04759); assay: PKCtheta (h) Upstate kinase activity assay; conditions: Compound concentration 10.0 uM
Protein kinase C theta type (Homo sapiens), sequence (Q04759 whole entry, looked up): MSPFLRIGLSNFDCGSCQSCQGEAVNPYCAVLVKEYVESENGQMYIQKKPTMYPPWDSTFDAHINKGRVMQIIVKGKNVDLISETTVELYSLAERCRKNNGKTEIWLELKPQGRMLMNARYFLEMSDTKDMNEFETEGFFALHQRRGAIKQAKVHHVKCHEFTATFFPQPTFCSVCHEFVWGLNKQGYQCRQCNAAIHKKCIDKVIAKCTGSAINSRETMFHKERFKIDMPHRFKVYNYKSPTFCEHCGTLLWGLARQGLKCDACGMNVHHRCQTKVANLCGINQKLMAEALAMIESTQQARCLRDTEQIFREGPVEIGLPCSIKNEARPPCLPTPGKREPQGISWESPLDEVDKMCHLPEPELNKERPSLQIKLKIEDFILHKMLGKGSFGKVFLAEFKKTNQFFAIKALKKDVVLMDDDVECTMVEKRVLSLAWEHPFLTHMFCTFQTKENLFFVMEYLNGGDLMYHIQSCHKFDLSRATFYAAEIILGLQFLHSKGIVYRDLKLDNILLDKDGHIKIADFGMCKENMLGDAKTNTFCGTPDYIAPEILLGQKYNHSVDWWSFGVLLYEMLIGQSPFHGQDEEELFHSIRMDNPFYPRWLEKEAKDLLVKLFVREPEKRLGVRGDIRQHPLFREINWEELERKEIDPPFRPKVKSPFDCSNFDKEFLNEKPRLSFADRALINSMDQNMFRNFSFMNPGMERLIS

[4] = target: Protein kinase C beta type (Homo sapiens) (UniProt P05771); assay: PKCBI (h) Upstate kinase activity assay; conditions: Compound concentration 10.0 uM
[5] = target: T1, Serine/threonine-protein kinase Sgk1 (Homo sapiens) (UniProt O00141); assay: SGK (h) Upstate kinase activity assay; conditions: Compound concentration 10.0 uM
T1 sequence (whole entry): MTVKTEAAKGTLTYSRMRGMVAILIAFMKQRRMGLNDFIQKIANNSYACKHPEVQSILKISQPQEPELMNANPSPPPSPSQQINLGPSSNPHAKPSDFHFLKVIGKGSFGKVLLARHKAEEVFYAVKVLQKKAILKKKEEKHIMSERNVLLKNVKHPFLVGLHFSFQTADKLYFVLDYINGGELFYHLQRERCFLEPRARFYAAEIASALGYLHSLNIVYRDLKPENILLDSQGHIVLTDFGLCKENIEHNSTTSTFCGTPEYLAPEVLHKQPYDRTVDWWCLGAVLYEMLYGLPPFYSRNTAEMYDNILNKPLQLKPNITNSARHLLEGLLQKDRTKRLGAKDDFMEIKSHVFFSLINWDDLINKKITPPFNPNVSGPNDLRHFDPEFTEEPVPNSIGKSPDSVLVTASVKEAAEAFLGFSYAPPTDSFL

[6] = target: Ephrin type-A receptor 2 (Homo sapiens) (UniProt P29317); assay: EphA2 (h) Upstate kinase activity assay; conditions: Compound concentration 10.0 uM
Ephrin type-A receptor 2 (Homo sapiens), sequence (P29317 whole entry): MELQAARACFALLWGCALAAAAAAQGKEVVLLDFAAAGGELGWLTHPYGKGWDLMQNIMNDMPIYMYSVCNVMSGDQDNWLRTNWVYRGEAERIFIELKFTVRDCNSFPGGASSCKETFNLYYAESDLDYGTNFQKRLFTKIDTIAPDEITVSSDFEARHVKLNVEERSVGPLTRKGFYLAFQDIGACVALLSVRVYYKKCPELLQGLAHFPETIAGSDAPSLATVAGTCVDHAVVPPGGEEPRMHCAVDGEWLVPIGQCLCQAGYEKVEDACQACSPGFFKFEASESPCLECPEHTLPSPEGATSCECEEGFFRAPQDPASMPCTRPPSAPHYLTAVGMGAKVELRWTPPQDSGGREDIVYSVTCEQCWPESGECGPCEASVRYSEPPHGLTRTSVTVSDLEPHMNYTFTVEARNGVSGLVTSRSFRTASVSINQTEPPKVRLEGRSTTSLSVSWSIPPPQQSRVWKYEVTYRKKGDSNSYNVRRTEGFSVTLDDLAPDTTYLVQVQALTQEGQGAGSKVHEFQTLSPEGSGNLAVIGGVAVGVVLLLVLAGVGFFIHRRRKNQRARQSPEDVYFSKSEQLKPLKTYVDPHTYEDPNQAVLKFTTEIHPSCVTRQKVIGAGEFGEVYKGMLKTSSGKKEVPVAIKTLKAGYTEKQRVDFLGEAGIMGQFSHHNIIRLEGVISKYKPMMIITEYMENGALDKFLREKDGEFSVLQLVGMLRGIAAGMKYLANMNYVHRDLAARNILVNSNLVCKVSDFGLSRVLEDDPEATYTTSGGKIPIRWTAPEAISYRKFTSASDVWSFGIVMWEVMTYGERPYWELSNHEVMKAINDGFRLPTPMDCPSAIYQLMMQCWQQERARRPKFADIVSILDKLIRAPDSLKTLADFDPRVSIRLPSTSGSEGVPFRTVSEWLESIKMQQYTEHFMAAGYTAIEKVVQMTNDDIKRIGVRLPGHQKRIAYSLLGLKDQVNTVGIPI

[7] = target: Mitogen-activated protein kinase 10 (Homo sapiens) (UniProt P53779); assay: JNK3 (h) Upstate kinase activity assay; conditions: Compound concentration 10.0 uM
[8] = target: Tyrosine-protein kinase Yes (Homo sapiens) (UniProt P07947); assay: Yes (h) Upstate kinase activity assay; conditions: Compound concentration 10.0 uM
[9] = target: Rho-associated protein kinase 2 (Rattus norvegicus) (UniProt Q62868); assay: (§1) ROCK-2 (r) Upstate kinase activity assay; conditions: Compound concentration 10.0 uM
[10] = target: Rho-associated protein kinase 2 (Rattus norvegicus, UniProt Q62868); assay: as §1
SK-N-MC = assay: Neuroepithelioma SK-N-MC cell line MDS Pharma Services Proliferation Assay; type: functional, cell-based, Homo sapiens
[11] = target: Serine/threonine-protein kinase Chk2 (Homo sapiens) (UniProt O96017); assay: CHK2 (h) Upstate kinase activity assay; conditions: Compound concentration 10.0 uM
Serine/threonine-protein kinase Chk2 (Homo sapiens), sequence (O96017 whole entry): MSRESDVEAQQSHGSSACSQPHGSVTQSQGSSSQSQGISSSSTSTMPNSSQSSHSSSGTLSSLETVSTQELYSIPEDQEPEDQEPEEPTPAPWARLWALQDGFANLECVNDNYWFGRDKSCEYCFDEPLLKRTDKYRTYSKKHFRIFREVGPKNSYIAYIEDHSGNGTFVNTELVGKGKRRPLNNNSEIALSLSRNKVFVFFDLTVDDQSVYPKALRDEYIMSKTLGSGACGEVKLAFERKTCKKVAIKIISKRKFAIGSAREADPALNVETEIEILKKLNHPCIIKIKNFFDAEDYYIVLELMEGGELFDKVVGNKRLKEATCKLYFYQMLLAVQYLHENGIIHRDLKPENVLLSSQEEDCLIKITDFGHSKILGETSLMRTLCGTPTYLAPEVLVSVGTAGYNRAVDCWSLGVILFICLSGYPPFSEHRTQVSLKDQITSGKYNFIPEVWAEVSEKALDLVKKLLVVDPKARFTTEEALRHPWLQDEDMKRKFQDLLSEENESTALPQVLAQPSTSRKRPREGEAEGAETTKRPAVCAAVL

[12] = target: Tyrosine-protein kinase Fes/Fps (Homo sapiens) (UniProt P07332); assay: Fes (h) Upstate kinase activity assay; conditions: Compound concentration 10.0 uM
Tyrosine-protein kinase Fes/Fps (Homo sapiens), sequence (P07332 whole entry): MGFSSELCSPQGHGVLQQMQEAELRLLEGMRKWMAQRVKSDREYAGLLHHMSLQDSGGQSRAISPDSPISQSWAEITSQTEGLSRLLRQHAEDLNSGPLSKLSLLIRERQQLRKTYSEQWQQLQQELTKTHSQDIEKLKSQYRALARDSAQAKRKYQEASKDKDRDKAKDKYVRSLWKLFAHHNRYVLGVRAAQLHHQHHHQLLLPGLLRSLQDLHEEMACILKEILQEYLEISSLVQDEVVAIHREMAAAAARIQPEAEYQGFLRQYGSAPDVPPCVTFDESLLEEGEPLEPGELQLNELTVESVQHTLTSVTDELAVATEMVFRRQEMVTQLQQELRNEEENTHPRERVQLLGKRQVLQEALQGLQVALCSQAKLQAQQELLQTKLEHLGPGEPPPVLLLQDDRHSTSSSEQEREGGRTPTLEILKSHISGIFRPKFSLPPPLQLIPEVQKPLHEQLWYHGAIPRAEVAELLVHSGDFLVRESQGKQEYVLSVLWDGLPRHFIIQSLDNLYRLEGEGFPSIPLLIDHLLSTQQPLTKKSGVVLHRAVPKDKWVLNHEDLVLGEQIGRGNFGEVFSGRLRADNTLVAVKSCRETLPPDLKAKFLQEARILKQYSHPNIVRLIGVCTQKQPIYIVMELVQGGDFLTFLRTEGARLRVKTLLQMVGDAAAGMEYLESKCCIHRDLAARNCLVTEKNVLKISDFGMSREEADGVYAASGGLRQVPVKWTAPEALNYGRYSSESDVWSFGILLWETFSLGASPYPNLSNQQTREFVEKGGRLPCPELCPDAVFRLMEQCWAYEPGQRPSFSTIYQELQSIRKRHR

Saccharomyces cerevisiae = assay: CK1 (y) Upstate kinase activity assay; conditions: Compound concentration 10.0 uM
[13] = target: AMP-activated protein kinase, AMPK (Rattus norvegicus) (UniProt P54645+Q09137+P80386+P80385+Q9QZH4+Q6V7V4+D4A7E4); assay: AMPK (r) Upstate kinase activity assay; type: protein-complex assay; conditions: Compound concentration 10.0 uM
[14] = target: Protein kinase C gamma type (Homo sapiens) (UniProt P05129); assay: PKCgamma (h) Upstate kinase activity assay; conditions: Compound concentration 10.0 uM
[15] = target: BDNF/NT-3 growth factors receptor (Homo sapiens) (UniProt Q16620); assay: TrkB (h) Upstate kinase activity assay; conditions: Compound concentration 10.0 uM
[16] = target: Tyrosine-protein kinase ABL1 (Homo sapiens) (UniProt P00519); assay: Abl (h) Upstate kinase activity assay; conditions: Compound concentration 10.0 uM
[17] = target: T2, Dual specificity mitogen-activated protein kinase kinase 7 (Homo sapiens) (UniProt O14733); assay: MKK7βbeta(h) Upstate kinase activity assay; conditions: Compound concentration 10.0 uM
T2 sequence (whole entry): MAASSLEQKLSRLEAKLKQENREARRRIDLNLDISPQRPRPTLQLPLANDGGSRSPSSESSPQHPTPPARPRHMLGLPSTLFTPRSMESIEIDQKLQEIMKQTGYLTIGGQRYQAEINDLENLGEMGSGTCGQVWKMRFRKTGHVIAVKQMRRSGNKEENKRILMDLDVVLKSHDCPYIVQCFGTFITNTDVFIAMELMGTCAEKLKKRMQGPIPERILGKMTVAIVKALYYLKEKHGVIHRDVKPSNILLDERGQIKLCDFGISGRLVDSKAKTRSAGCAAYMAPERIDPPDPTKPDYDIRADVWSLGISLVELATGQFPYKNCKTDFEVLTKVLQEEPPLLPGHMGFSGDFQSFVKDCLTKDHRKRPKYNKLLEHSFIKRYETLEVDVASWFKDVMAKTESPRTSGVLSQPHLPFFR

[18] = Melanoma B16-FO cell line MDS Pharma Services Proliferation Assay; type: functional, cell-based

Epidermal growth factor receptor (Homo sapiens), P00533 [UNDEFINED MUTATION], sequence (P00533 whole entry, looked up, change not shown): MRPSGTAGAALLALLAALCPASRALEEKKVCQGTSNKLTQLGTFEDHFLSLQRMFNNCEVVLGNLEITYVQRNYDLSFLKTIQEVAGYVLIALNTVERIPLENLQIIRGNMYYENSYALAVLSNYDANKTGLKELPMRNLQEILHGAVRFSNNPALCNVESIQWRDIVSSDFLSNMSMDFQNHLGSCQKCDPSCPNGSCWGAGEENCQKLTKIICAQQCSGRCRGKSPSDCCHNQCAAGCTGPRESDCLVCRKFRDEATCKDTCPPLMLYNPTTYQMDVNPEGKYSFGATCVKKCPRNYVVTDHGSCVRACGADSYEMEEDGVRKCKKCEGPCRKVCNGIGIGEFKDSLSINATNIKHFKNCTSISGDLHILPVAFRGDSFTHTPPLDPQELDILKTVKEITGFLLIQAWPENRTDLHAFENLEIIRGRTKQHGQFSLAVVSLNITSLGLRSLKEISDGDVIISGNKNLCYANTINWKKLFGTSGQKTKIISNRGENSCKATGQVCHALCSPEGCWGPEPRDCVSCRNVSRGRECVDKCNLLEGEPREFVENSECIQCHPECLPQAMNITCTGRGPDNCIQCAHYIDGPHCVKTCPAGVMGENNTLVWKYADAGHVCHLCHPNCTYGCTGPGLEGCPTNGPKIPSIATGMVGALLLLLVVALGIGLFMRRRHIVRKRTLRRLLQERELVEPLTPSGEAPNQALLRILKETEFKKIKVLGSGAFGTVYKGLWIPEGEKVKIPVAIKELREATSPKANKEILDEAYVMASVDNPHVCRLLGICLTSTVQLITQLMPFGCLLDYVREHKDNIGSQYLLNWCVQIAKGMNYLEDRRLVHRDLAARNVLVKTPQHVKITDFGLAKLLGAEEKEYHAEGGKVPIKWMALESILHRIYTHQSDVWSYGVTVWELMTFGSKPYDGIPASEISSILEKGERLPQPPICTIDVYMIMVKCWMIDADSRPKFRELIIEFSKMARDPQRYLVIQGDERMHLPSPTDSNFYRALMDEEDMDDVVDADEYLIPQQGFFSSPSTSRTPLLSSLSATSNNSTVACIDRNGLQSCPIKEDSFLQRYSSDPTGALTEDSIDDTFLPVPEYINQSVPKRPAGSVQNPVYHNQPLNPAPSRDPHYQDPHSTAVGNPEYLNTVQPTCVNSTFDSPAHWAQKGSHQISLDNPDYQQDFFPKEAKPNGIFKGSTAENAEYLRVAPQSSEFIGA

Cn1cc(Cl)c2c(Oc3c(F)cc(Nc4cc(Cl)nc(N)n4)cc3F)ccnc21 [BAY-4900]
residual activity [1]: 52% | inhibition [2]: 3.14%

Cc1c[nH]c2nccc(Oc3c(F)cc(Nc4cc(Cl)nc(N)n4)cc3F)c12 [BAY-549]
inhibition [3]: 42% | inhibition [4]: 8% | inhibition [5]: 76% | inhibition [6]: 4% | inhibition [7]: 8% | inhibition [8]: 23% | inhibition [9]: 102% | IC50 [10]: < 0.001 µM | IC50 (SK-N-MC; Homo sapiens, SK-N-MC): 7.9 µM | TGI (SK-N-MC; Homo sapiens, SK-N-MC): 20 µM | CC50 (SK-N-MC; Homo sapiens, SK-N-MC, read-out: LC50 (the source's name)): 52 µM | Mean % growth (n = 2) for 10.0 µM probe concentration (SK-N-MC; ± SEM 3 % growth): 38% | Mean % growth (n = 2) for 0.1 µM probe concentration (SK-N-MC; ± SEM 4 % growth): 103% | Mean % growth (n = 2) for 1.0 µM probe concentration (SK-N-MC; ± SEM 5 % growth): 98% | Mean % growth (n = 2) for 0.01 µM probe concentration (SK-N-MC; ± SEM 6 % growth): 103% | Mean % growth (n = 2) for 100.0 µM probe concentration (SK-N-MC; ± SEM 8 % growth): -72% | inhibition [11]: 64% | inhibition [12]: 28% | inhibition (Saccharomyces cerevisiae): 44% | inhibition [13]: 8% | inhibition [14]: 33% | inhibition [15]: 84% | inhibition [16]: 14% | inhibition [17]: 20% | CC50 ([18]; Mus musculus, B16-F10, read-out: LC50 (the source's name)): > 100 µM | Mean % growth (n = 2) for 1.0 µM probe concentration ([18]; ± SEM 1 % growth): 106% | Mean % growth (n = 2) for 0.1 µM probe concentration ([18]; ± SEM 4 % growth): 94% | Mean % growth (n = 2) for 0.01 µM probe concentration ([18]; ± SEM 5 % growth): 98% | Mean % growth (n = 2) for 100.0 µM probe concentration ([18]; ± SEM 5 % growth): -46% | Mean % growth (n = 2) for 10.0 µM probe concentration ([18]; ± SEM 9 % growth): 53%
